Test results reported in US20220370416A1, “COMPOUNDS AND METHODS FOR TARGETED DEGRADATION OF KRAS” (Arvinas Operations, Inc., priority 2020, published 2022).

Experiments:
[1] = target: T1, KRAS^G12C (Homo sapiens, UniProt P01116, G12C); experiment: KRAS^G12C engagement and degradation by immunoblot in SW1573 cells; assay type: cell-based; set-up: MRTX849-VHL bifunctional compounds engage and degrade endogenous KRAS^G12C in NCI-H2030 cells; endogenous in cells; host or cells: NCI-H2030, NCI-H358, MIA PaCa-2, SW1573, NCI-H23; conditions: for KRAS, two-way ANOVA significance vs DMSO: FIG. 11
Protocol: NCI-H2030 (CRL-5914), MIA PaCa-2 (CRL-1420), NCI-H23 (CRL-5800), NCI-H358 (CRL-5807), and HCT-116 (CCL-247) cells were obtained from ATCC, expanded immediately, and frozen down. Vials were thawed and used within 20 passages. SW1573 cells were a gift from Arvinas and were handled in the same manner. NCI-H2030, NCI-H23, and NCI-H358 were cultured in RPMI (ATCC30-2001) supplemented with 10% FBS (Biological Industries; cat. no. S1480) and 1% Penicillin-Streptomycin (ThermoFisher; cat. no. 15140122). HCT-116 cells were maintained in high glucose DMEM (ThermoFisher; cat. no. 11965084) supplemented as above. MIA PaCa-2 cells were cultured in high glucose DMEM supplemented with 10% FBS, 2.5% horse serum (ThermoFisher; cat. no. 26050-088; lot 2109875), and 1% Penicillin-Streptomycin. SW1573 cells were maintained in DMEM/F12 Nutrient Mix with GlutaMAX supplement (ThermoFisher; cat. no. 10565018) with 10% FBS and 1% Penicillin-Streptomycin added. DPBS (ThermoFisher; cat. no. 14190250) was used to wash cells and 0.25% Trypsin-EDTA (ThermoFisher; cat. no. […]) was used to detach cells for passaging. […] The VHL ligand was generously provided by Arvinas.
Between 2.5×10^5 and 6.0×10^5 cells were seeded into 6-well plates (Corning; cat. no. 353046). The next day, media was removed and cells were treated with 2.5 μM LC-2 for 1, 2, 4, 8, 12, or 24 hours. […] For 24-hour time course experiments, cells were treated at the indicated times and concurrently lysed in RIPA buffer supplemented as described previously. For longer time course experiments and time courses in which cells were treated with LC-2 or LC-2 Epimer, cells were concurrently treated with either compound, then lysed by scraping in RIPA buffer at the indicated time points.
Cell lysates were clarified at 21000×g for 15 mins at 4° C. Protein levels were quantified using a 50:1 mixture of bicinchoninic acid solution (Millipore Sigma; cat. no. B9643) and 4% (w/v) copper(II) sulfate solution (Millipore Sigma; cat. no. C2284) incubated at 37° C. for 30 mins. Absorbance values at 560 nm were read on an EnVision 2101 Multilabel Reader (PerkinElmer). Proteins were separated using 26 well Criterion TGX precast 4-15% (cat. no. 5671085) or 8-16% (cat. no. 5671105) gradient midi gels. After separation, proteins were transferred to nitrocellulose or PVDF membranes at 76 V for 2 hours at 4° C. Blots were then blocked in 5% milk in tris-buffered saline with Tween-20 (TBST; 20 mM Tris, 150 mM NaCl, 0.02% Tween-20). After blocking, blots were incubated in primary antibody overnight (12-18 hours) at 4° C. or for 2 hours at room temperature with mild agitation at the manufacturer's indicated dilution in either 5% milk or 5% BSA in TBST. Blots were then washed thrice with TBST for 5 mins at room temperature. After washing, blots were incubated with 1:5,000-1:10,000 of donkey anti-rabbit (GE Life Sciences; NA934) or sheep anti-mouse (GE Life Sciences; NA931) secondary antibody diluted in 5% milk for 1 hour at room temperature with mild agitation. Blots were again washed thrice with TBST for 5 mins. Chemiluminescent signal was generated using Amersham ECL Prime Western Blotting Detection Reagant (GE Life Sciences; cat. no. RPN2232) or SuperSignal West Femto Maximum Sensitivity Substrate (ThermoFisher; cat. no. 34095). Images were obtained using a Bio-Rad ChemiDoc Imager. Fluorescent α-tubulin images were collected with the Bio-Rad ChemiDoc Imager using an Alexa488 filter. The primary antibodies used in this work include: KRAS (LSBio; clone 2C1; cat. no. LS-C175665), p-p42/44 MAPK (phospho T202/Y204) (pErk; Cell Signaling Technologies (CST); cat. no. 4370S or 9106S), p42/44 MAPK (Erk1/2; CST; cat. no. 4695S), alpha-tubulin (CST; 2144S), and alpha-tubulin w/AlexaFluor488 (Millipore; cat. no. 16-232).
Band intensities were quantified using BioRad's Image Lab Software. […]

[2] = target: T1, KRAS^G12C; experiment: Engagement and degradation of endogenous KRAS^G12C in NCI-H2030 cells (blot quantitation); assay type: cell-based; set-up: MRTX849-VHL bifunctional compounds engage and degrade endogenous KRAS^G12C in NCI-H2030 cells; endogenous in cells; host or cells: NCI-H2030

SMILES: C=C(F)C(=O)N1CCN(c2nc(OC[C@@H]3CCCN3CCCOCCC(=O)N[C@H](C(=O)N3C[C@@H](O)C[C@H]3C(=O)NCc3ccc(-c4scnc4C)cc3)C(C)(C)C)nc3c2CCN(c2cccc4cccc(Cl)c24)C3)C[C@@H]1CC#N [LC-2 Epimer, (2S,4S)-1-((S)-2-(3-(3-((S)-2-(((7-(8-chloronaphthalen-1-yl)-4-((S)-3-(cyanomethyl)-4-(2-fluoroacryloyl)piperazin-1-yl)-5,6,7,8-tetrahydropyrido[3,4-d]pyrimidin-2-yl)oxy)methyl)pyrrolidin-1-yl)propoxy)propanamido)-3,3-dimethylbutanoyl)-4-hydroxy-N-(4-(4-methylthiazol-5-yl)benzyl)pyrrolidine-2-carboxamide]
- time to near maximal engagement ([1]; SW1573, 2.5 μM): 1 h
- KRAS^G12C engagement and protein levels ([1]; SW1573, longer time course (FIG. 8)): fully engaged KRAS^G12C in SW1573 cells, but did not decrease protein levels
- induction of KRAS^G12C degradation ([2]; 2.5 μM (FIG. 5A)): does not induce KRAS^G12C degradation

SMILES: C=C(F)C(=O)N1CCN(c2nc(OC[C@@H]3CCCN3CCCOCCC(=O)N[C@H](C(=O)N3C[C@H](O)C[C@H]3C(=O)NCc3ccc(-c4scnc4C)cc3)C(C)(C)C)nc3c2CCN(c2cccc4cccc(Cl)c24)C3)C[C@@H]1CC#N [LC-2, (2S,4R)-1-((S)-2-(3-(3-((S)-2-(((7-(8-chloronaphthalen-1-yl)-4-((S)-3-(cyanomethyl)-4-(2-fluoroacryloyl)piperazin-1-yl)-5,6,7,8-tetrahydropyrido[3,4-d]pyrimidin-2-yl)oxy)methyl)pyrrolidin-1-yl)propoxy)propanamido)-3,3-dimethylbutanoyl)-4-hydroxy-N-(4-(4-methylthiazol-5-yl)benzyl)pyrrolidine-2-carboxamide]
- duration of KRAS degradation ([1]; SW1573, 2.5 μM): sustained up to 72 hours
- time to maximal KRAS degradation ([1]; SW1573, 2.5 μM, 6, 24, 48, 72 hours): ≤ 24 h
- KRAS, two-way ANOVA significance vs DMSO ([1]; SW1573, 2.5 μM, 1 hour): N.S.
- KRAS, two-way ANOVA significance vs DMSO ([1]; SW1573, 2.5 μM, 2 hours): N.S.
- KRAS, two-way ANOVA significance vs DMSO ([1]; SW1573, 2.5 μM, 4 hours): N.S.
- KRAS, two-way ANOVA significance vs DMSO ([1]; SW1573, 2.5 μM, 8 hours): ** (** p < 0.01)
- KRAS, two-way ANOVA significance vs DMSO ([1]; SW1573, 2.5 μM, 12 hours): ** (** p < 0.01)
- time to maximal degradation ([1]; SW1573, 2.5 μM, 24 hour time course): 12 h
- KRAS, two-way ANOVA significance vs DMSO ([1]; SW1573, 2.5 μM, 24 hours): *** (*** p < 0.005)
- DC50 ([1]; SW1573, homozygous KRAS^G12C): 760 ± 300 nM
- Dmax ([1]; SW1573, homozygous KRAS^G12C): > 85%
- rescue of induced KRAS^G12C degradation (mechanism) ([2]; VHL ligand competition, epoxomicin, MLN924 (FIG. 5A)): rescued by VHL ligand competition, proteasome inhibition with epoxomicin (Epox), and neddylation inhibition with MLN924 (MLN)
- degradation of KRAS^G12C ([2]; dose response (FIG. 2C)): degrades KRAS^G12C in a dose dependent manner
- maximal KRAS^G12C degradation maintained up to ([2]; time course (FIG. 6A)): 24 h
- time to maximal KRAS^G12C degradation ([2]; time course (FIG. 6A)): ≤ 8 h
